The record followed here is patent publication US10626094B2 (La Jolla Institute of Allergy & Immunology, priority 2014, dated 2020).

A value given as a limit tells only on which side of the number the result lay.

This test deals with LMPTP-A (Low Molecular Weight Protein Tyrosine Phosphatase-A) enzyme (Homo sapiens (Human), UniProt P24666). Put plainly: LMPTP primary screening / LMPTP (OMFP) enzyme inhibition assay, fluorescence intensity. The format is biochemical. To be noted: LMPTP-A, OMFP substrate, method of Example 2; read-out: IC50. The method in brief: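 0.625 nM LMPTP-A with 400 μM OMFP substrate in 50 mM Bis-Tris pH 6.0, 1 mM DTT, 0.01% Triton X-100, […]. Compounds at 20 μM final. Incubated 50 min at room temperature in the dark; fluorescence intensity read.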
Chain of LMPTP-A (Low Molecular Weight Protein Tyrosine Phosphatase-A) enzyme (P24666 whole entry): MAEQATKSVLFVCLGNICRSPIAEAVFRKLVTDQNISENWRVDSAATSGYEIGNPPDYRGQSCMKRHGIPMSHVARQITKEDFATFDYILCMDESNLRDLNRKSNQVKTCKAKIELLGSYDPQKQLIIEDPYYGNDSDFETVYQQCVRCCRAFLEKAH
For orientation: IC50 means the midpoint of a concentration-inhibition curve. On to `Cc1nc(C)c(-c2cc(NCCCC3CCCNC3)c3ccccc3n2)s1` (stereo not shown) [Compound I176, [2-(2,4-dimethyl(1,3-thiazol-5-yl))(4-quinolyl)](3-piperidylpropyl)amine], for which the IC50 lay in the range of 801 to 5000 nM.
In the case of `COc1ccc(-c2cc(Nc3ncccn3)c3ccccc3n2)cc1` [Compound G72, [2-(4-methoxyphenyl)(4-quinolyl)]pyrimidin-2-ylamine] it was 801 to 5000 nM.
Take `COc1ccc(-c2cc(Nc3cccc(C(F)(F)F)c3)c3ccccc3n2)cc1` [Compound G37, [2-(4-Methoxy-phenyl)-quinolin-4-yl]-(3-trifluoromethyl-phenyl)-amine]: the IC50 was over 5000 nM.
Turning to `CN1CCCC1CCNc1cc(-c2cc(C(F)(F)F)cc(C(F)(F)F)c2)nc2ccccc12` (stereo not shown) [Compound I46, {2-[3,5-bis(trifluoromethyl)phenyl](4-quinolyl)}[2-(1-methylpyrrolidin-2-yl)ethyl]amine], the IC50 was over 5000 nM.
The figure for `CN1CCC(Cc2cccc(Nc3cc(-c4cccc(Cl)c4)nc4ccccc34)c2)CC1` [Compound I18, [2-(3-chlorophenyl)(4-quinolyl)]{3-[(1-methyl(4-piperidyl))methyl]phenyl}amine] is 801 to 5000 nM; for `FC(F)(F)c1cc(-c2cc(Nc3ccccc3CC3CCNCC3)c3ccccc3n2)cc(C(F)(F)F)c1` [Compound I49, {2-[3,5-bis(trifluoromethyl)phenyl](4-quinolyl)}[2-(4-piperidylmethyl)phenyl]amine] it is over 5000 nM; for `COc1ccc(-c2cc(Nc3cccc(CN4CCCC4)c3)c3ccccc3n2)cc1` [Compound G50, [2-(4-methoxyphenyl)(4-quinolyl)][3-(pyrrolidinylmethyl)phenyl]amine] it is 200 to 800 nM.
In the case of “(2-fluoro-4-{4-[(3-piperidylpropyl)amino](2-quinolyl)}phenyl)-N-methylcarboxamide [Compound I228]”, the IC50 fell in the range of 801 to 5000 nM.
In the case of `c1ccc2c(NCCCN3CCCCC3)cc(-c3ccoc3)nc2c1` [Compound G14, (2-Furan-3-yl-quinolin-4-yl)-(3-piperidin-1-yl-propyl)-amine] it was 801 to 5000 nM.
In the case of `c1ccc2sc(-c3cc(NCCCN4CCCCC4)c4ccccc4n3)cc2c1` [Compound I140] it was 801 to 5000 nM; in that of `O=C(c1ccc(-c2cc(NCCCN3CCCCC3)c3ccccc3n2)cc1)N1CCCC1` [Compound I84, 4-{4-[(3-piperidylpropyl)amino](2-quinolyl)}phenyl pyrrolidinyl ketone], 801 to 5000 nM; in that of `COc1ccc(OC)c(-c2cc(NCCCN3CCCCC3)c3ccccc3n2)c1` [Compound I173], 801 to 5000 nM.
For `Fc1cccc(-c2cc(NCCCN3CCCCC3)c3ccccc3n2)c1` [Compound G7, [2-(3-Fluoro-phenyl)-quinolin-4-yl]-(3-piperidin-1-yl-propyl)-amine], the IC50 was 801 to 5000 nM.
In the case of `CSc1ccc(-c2cc(NCCCN3CCCCC3)c3ccccc3n2)c(C(F)(F)F)c1` [Compound I114] it was 801 to 5000 nM; in that of `FC(F)(F)c1ccc(-c2cc(Nc3ccccc3CC3CCNCC3)c3ccccc3n2)c(C(F)(F)F)c1` [Compound I55, {2-[2,4-bis(trifluoromethyl)phenyl](4-quinolyl)}[2-(4-piperidylmethyl)phenyl]amine], over 5000 nM.
As to `Fc1cc(Cl)ccc1-c1cc(Nc2cccc(CN3CCCC3)c2)c2ccccc2n1` [Compound I10], the IC50 was 801 to 5000 nM.
The figure for `COc1ccc(-c2cc(NCCCN3CCCCC3)c3c(n2)CCCC3)cc1` [Compound I208] is 801 to 5000 nM; for `CCN1CCC(Cc2cccc(Nc3cc(-c4cccc(NC(C)=O)c4)nc4ccccc34)c2)CC1` [Compound I237, N-{3-[4-({3-[(1-ethyl-4-piperidyl)methyl]phenyl}amino)-2-quinolyl]phenyl}acetamide] it is 801 to 5000 nM; for `O=C(NCCc1ccncc1)c1ccc(-c2cc(NCCCN3CCCCC3)c3ccccc3n2)cc1` [Compound I189] it is 200 to 800 nM.
